Source: patent US20150307938A1, “METHOD TO IDENTIFY A NOVEL CLASS OF IMMUNOLOGIC ADJUVANTS” (Lancell, L.L.C., priority 2011, published 2015)

How the values were obtained:
OVA = test: Immune response to intradermal peptide (SIINFEKL) or protein (OVA) antigen, also alum-adsorbed OVA, with topical DBP; type: in vivo, mice
Source text: Topical DBP induced a 16-fold increase in the IgG1 Ab response to OVA adsorbed to alum and increased the IgG2c response 26-fold.

skin = conditions: in vivo
Fluzone = tested on: Fluzone; set-up: species or system C57BL/6 mice; conditions: mouse, in vivo
skin dendritic cells = test: Flow cytometric analysis of Ahr−/− response to topical DBP
[1] = tested on: Murine Skin Dendritic Cells; test: Activation of murine skin dendritic cells by DBP vs. DBlT (DC per lymph node, CD86); type: in vivo; conditions: topical treatment

## CCCCOC(=O)c1ccccc1C(=O)OCCCC [DBP, dibutylphthalate]
OVA; DBP on skin of mice injected intradermally with adjuvant-free SIINFEKL or OVA
  T cell and antibody responses: dramatic increase
OVA; high dose of alum-adsorbed OVA plus topical DBP, 60% succumbed without DBP
  survival of anaphylaxis: all of the mice survived
OVA; topical DBP
  increase in the IgG1 Ab response to OVA adsorbed to alum: 16 fold
  increase in the IgG2c response to OVA adsorbed to alum: 26 fold
skin
  histologic evidence of contact hypersensitivity: no histologic evidence of contact hypersensitivity
Fluzone
  HAI titer / adjuvant effect with the same dose of Fluzone: majorly improved
Skin dendritic cells; Ahr−/− mice
  E/C: 6.375
Skin dendritic cells; B6 mice
  E/C: 5.97
Skin dendritic cells; topical application
  skin dendritic cell response in AhR−/− mice: no evidence for any impairment
[1]
  MFI CD86: 618 (95)
